Measured values taken from US9376466B2, “Peptide inhibitors of caspase 2 activation” (The Trustees of Columbia University in the city of New York, priority 2011, dated 2016).
“Also recorded” adds a separate entry of the source.

Tests used:
Format in all cases: cell-based, rat
[1] = test system: primary hippocampal neurons; experiment: Cell survival assay, primary hippocampal neurons treated with Aβ1-42; conditions: AFDAFC-Pen1 final concentration 80 nM, survival quantified after 1 day, n=3, FIG. 7
Procedure: Peptide Preparation: AFDAFC (SEQ ID NO: 1) was synthesized by Multiple Peptide Systems (San Diego, Calif.). Lyophilized peptide was resuspended in sterile ddH2O and linked in equimolar amounts with Pen1 (Troy et al. Proc. Natl. Acad. Sci. U.S.A. 93: 5635-5640 (1996)) for a stock concentration of 80 μM. AFDAFC-Pen1 was used at a final concentration of 80 nM.
Embryonic day 18 rat fetuses were removed from CO2-sacrificed pregnant Sprague Dawley rats (Charles River). The hippocampus was dissected out from surrounding tissue and the meninges completely removed. Pooled tissue was mechanically dissociated in a serum-free defined medium. […]
Cell Survival Assay. Hippocampal or sympathetic neuron survival was scored as previously reported (Troy et al., J Neurosci. 17:1911-8, 1997). […] Intact nuclei were quantified using a hemacytometer. Triplicate wells were scored and values reported as mean±SEM. Significance was calculated by Student's t-test. For sympathethic neurons, each culture was scored as numbers of living, phase-bright neurons counted in the same field at various times. Three replicate cultures were assessed for each condition, and data are normalized to numbers of neurons present in each culture at the time of Aβ1-42 addition or NGF deprivation and reported as mean±SEM.

[2] = test system: Caspase 2 bound to endogenous RAIDD; experiment: Caspase 2 and RAIDD co-immunoprecipitation in primary hippocampal neurons; conditions: primary hippocampal neurons treated with AFDAFC-Pen1 prior to Aβ1-42; Western blot; FIG. 13
Procedure: Caspase 2 and RAIDD Co-Immunoprecipitation (IP). Mouse IgG magnetized beads (Invitrogen) were pre-coated with a RAIDD antibody (anti-CRADD; Abnova) for 2 hrs at 4° C. on a rotator. 2 μg of antibody was used per 30 μl of beads. Primary rat hippocampal neurons were treated with Aβ1-42 (3 μM) for 1 or 2 hrs. Cell lysates were prepared using CHAPS lysis buffer. 70-120 μg of lysates were loaded onto anti-CRADD pre-coated beads and incubated overnight at 4° C. on a rotator. Following the overnight incubation, the captured proteins were boiled off the beads at 100° C. for 5 mins. The immunoprecipitated samples, along with inputs, were then subjected to Western blotting using affinity purified polyclonal anti-Caspase 2.

Bim = experiment: Western blot of Bim protein in hippocampal neuron cultures; conditions: primary hippocampal neurons treated with AFDAFC-Pen1 prior to Aβ1-42; FIG. 14
Procedure: Cell Culture of primary hippocampal neuron cultures. Neurons were cultured as previously described (Akpan et al., J Neurosci. 31:8894-904, 2011). Briefly, embryonic day 18 rat fetuses were removed from CO2-sacrificed pregnant Sprague Dawley rats (Charles River). The hippocampus was dissected from surrounding tissue and the meninges removed. Pooled hippocampi were mechanically dissociated in a serum-free defined medium. Medium consisted of a 1:1 mixture of Eagle's MEM and Ham's F12 (Invitrogen) supplemented with glucose (6 mg/ml), insulin (25 μg/ml), selenium (30 nM), progesterone (20 nM), transferrin (100 μg/ml), putrescine (60 μg/ml), penicillin (0.5 U/ml), and streptomycin (0.5 μg/ml). Dissociated cells were grown on poly-D-lysine coated plates or 8-well chamber slides. Neurons were cultured for 7 days prior to experimental treatments.
Western Blot. Hippocampal neurons or sympathetic neurons were lysed in CHAPS lysis buffer ([…], 50 mM HEPES, 0.1% CHAPS, protease inhibitor tablet, pH 7.4). Protein concentration was determined using BioRad protein assay reagent (Bio-Rad). Equal amounts of protein were loaded onto 10% or 12% polyacrylamide gels. […] Proteins were detected using either enhanced chemiluminescence (Thermo Scientific) or fluorescence using the Odyssey infrared imaging system (LI-COR Biosciences). The relative densities of immunopositive bands were analyzed using ImageJ.

## AFDAFC-Pen1: Caspase 2 activation inhibitory peptide AFDAFC (SEQ ID NO: 1) conjugated to cell-penetrating peptide Pen1 (RQIKIWFQNRRMKWKK)
[1]
  Aβ-mediated cell death (survival): abrogates Aβ-mediated cell death
[2]
  Aβ1-42-induced binding of Caspase 2 to RAIDD: reduces Aβ1-42-induced binding of Caspase 2 to RAIDD
Bim
  Bim induction elicited by Aβ1-42 (protein level): preventing Bim induction; also recorded: prevents Bim induction
